# Test results from US10626105B2, “Deuterium-substituted pyridin- and pyrimidin-2-yl-methylamine compounds” (Auspex Pharmaceuticals, Inc., priority 2016, dated 2020).
# Assay: In vitro human liver microsomal stability assay
# Assay type: in vitro ADME
# Details: human liver microsomes 0.5 mg/mL protein, NADPH 2 mM, pH 7.4, 1 μM test compound, 37 °C, 0-45 min; change relative to non-deuterated (d0) comparative compound
# Experimental: In Vitro Liver Microsomal Stability Assay
# Human liver microsomal stability assays were conducted at 0.5 mg per mL liver microsome protein with NADPH (2 mM, pH 7.4). Test compounds were prepared as solutions in DMSO and added to the assay mixture (1 μM, final concentration in incubation) to be incubated at 37±1° C. Reactions were initiated with the addition of cofactor and are stopped at 0, 5, 15, 30, and 45 min after cofactor addition with stop reagent (acetonitrile). After quenching, plates containing samples are vibrated for 10 min (600 rpm/min) and then centrifuged at 5594 g for 15 min. Supernatant fractions were analyzed by LC-MS/MS to determine the percent remaining and estimate the degradation half-life of the test compounds.
Clearance % change over d0,Half-life % change over d0,Structure (SMILES)
0%,0%,"Cc1ccc(CNCC2(F)CCN(C(=O)c3ccc(F)c(Cl)c3)CC2)nc1 [Example 1, (3-chloro-4-fluorophenyl)(4-fluoro-4-((((5-methylpyridin-2-yl)methyl)amino)methyl)piperidin-1-yl)methanone, reference compound]"
−7.5%,8.4%,"[2H]C([2H])(NCc1ccc(C)cn1)C1(F)CCN(C(=O)c2ccc(F)c(Cl)c2)CC1 [Example 2, (3-chloro-4-fluorophenyl)(4-fluoro-4-((((5-methylpyridin-2-yl)methyl)amino)methyl-d2)piperidin-1-yl)methanone]"
−5. %,5.6%,"[2H]C([2H])([2H])c1ccc(CNCC2(F)CCN(C(=O)c3ccc(F)c(Cl)c3)CC2)nc1 [Example 3, (3-chloro-4-fluorophenyl)(4-fluoro-4-((((5-(methyl-d3)pyridin-2-yl)methyl)amino)methyl)piperidin-1-yl)methanone]"
−5.1%,5.4%,"[2H]C([2H])([2H])c1ccc(C([2H])([2H])NCC2(F)CCN(C(=O)c3ccc(F)c(Cl)c3)CC2)nc1 [Example 4, (3-chloro-4-fluorophenyl)(4-fluoro-4-((((5-(methyl-d3)pyridin-2-yl)methyl-d2)amino)methyl)piperidin-1-yl)methanone]"
−6.7%,7.2%,"[2H]C([2H])(NCC1(F)CCN(C(=O)c2ccc(F)c(Cl)c2)CC1)c1ccc(C)cn1 [Example 5, (3-chloro-4-fluorophenyl)(4-fluoro-4-((((5-methylpyridin-2-yl)methyl-d2)amino)methyl)piperidin-1-yl)methanone]"
−9.1%,10.0%,"[2H]C([2H])([2H])c1ccc(C([2H])([2H])NC([2H])([2H])C2(F)CCN(C(=O)c3ccc(F)c(Cl)c3)CC2)nc1 [Example 6, (3-chloro-4-fluorophenyl)(4-fluoro-4-((((5-(methyl-d3)pyridin-2-yl)methyl-d2)amino)methyl-d2)piperidin-1-yl)methanone]"
−5.8%,6.2%,"[2H]C(NCc1ccc(C)cn1)C1(F)C([2H])([2H])C([2H])([2H])N(C(=O)c2ccc(F)c(Cl)c2)C([2H])([2H])C1([2H])[2H] (centres unmarked) [Example 7, ([1-[(3-chloro-4-fluorophenyl)carbonyl]-4-fluoro(d8)piperidin-4-yl](d)methyl)[(5-methylpyridin-2-yl)methyl]amine]"
0%,0%,"Cc1cnc(CNCC2(F)CCN(C(=O)c3ccc(F)c(Cl)c3)CC2)nc1 [Example 8, (3-chloro-4-fluorophenyl)(4-fluoro-4-((((5-methylpyrimidin-2-yl)methyl)amino)methyl)piperidin-1-yl)methanone, reference compound]"
3.7%,−3.5%,"[2H]C([2H])(NCC1(F)CCN(C(=O)c2ccc(F)c(Cl)c2)CC1)c1ncc(C)cn1 [Example 9, (3-chloro-4-fluorophenyl)(4-fluoro-4-((((5-methylpyrimidin-2-yl)methyl-d2)amino)methyl)piperidin-1-yl)methanone]"
8.4%,−7.7%,"[2H]C([2H])([2H])c1cnc(CNCC2(F)CCN(C(=O)c3ccc(F)c(Cl)c3)CC2)nc1 [Example 10, (3-chloro-4-fluorophenyl)(4-fluoro-4-((((5-(methyl-d3)pyrimidin-2-yl)methyl)amino)methyl)piperidin-1-yl)methanone]"
5.5%,−5.2%,"[2H]C([2H])([2H])c1cnc(C([2H])([2H])NCC2(F)CCN(C(=O)c3ccc(F)c(Cl)c3)CC2)nc1 [Example 11, (3-chloro-4-fluorophenyl)(4-fluoro-4-((((5-(methyl-d3)pyrimidin-2-yl)methyl-d2)amino)methyl)piperidin-1-yl)methanone]"
2.1%,−2.1%,"[2H]C([2H])(NCc1ncc(C)cn1)C1(F)CCN(C(=O)c2ccc(F)c(Cl)c2)CC1 [Example 12, (3-chloro-4-fluorophenyl)(4-fluoro-4-((((5-methylpyrimidin-2-yl)methyl)amino)methyl-d2)piperidin-1-yl)methanone]"
−0.9%,0.9%,"[2H]C(NCc1ncc(C)cn1)C1(F)C([2H])([2H])C([2H])([2H])N(C(=O)c2ccc(F)c(Cl)c2)C([2H])([2H])C1([2H])[2H] (centres unmarked) [Example 13, ([1-[(3-chloro-4-fluorophenyl)carbonyl]-4-fluoro(d8)piperidin-4-yl](d)methyl)[(5-methylpyrimidin-2-yl)methyl]amine]"
